The text below walks through data of patent US20250346600A1, “TRICYCLIC DERIVATIVES AND RELATED USES” (MOMA Therapeutics, Inc., priority 2023, published 2025).

The target of experiment [1] is T1, Full length WRN protein (aa 2-1432) (Homo sapiens (Human), UniProt Q14191). As to the kind of experiment: WRN ATPase ADP-Glo biochemical assay, Assay Format A (10 μM ATP). The settings on record: 0.25 nM WRN, 100 nM C6.18 ssDNA, 30 min preincubation, read-out: ATPase ADPGlo AC50 (uM)- Assay Format A. The text has this: Full length Werner helicase construct (Uniprot: Q14191) with an N-terminal FLAG-AVI-TEV tag was expressed using the Sf9 cell/baculovirus expression system. The harvested cell pellet was resuspended and lysed in a glass homogenizer. After insoluble material was removed by centrifugation, the helicase protein was first purified with FLAG affinity resin and then further purified through a size-exclusion chromatography column. Peak fractions containing the purified protein were concentrated, split into aliquots and frozen in liquid nitrogen to be thawed before use. Biochemical Assay Description (ATPase activity)-Assay Format A WRN activity was measured using an ATPase assay. Full length WRN protein (aa 2-1432) (production described separately) was used for the biochemical activity assays. The 39-mer ssDNA “C6.18” [NT] was purchased from IDT and used as a substrate. Quantification of ATP hydrolysis was evaluated using the ADP-Glo assay kit (Promega, Madison, WI). An enzyme titration time-course was performed to determine the optimal assay conditions. […] To evaluate the inhibitory effects of the compounds, 11-point 3-fold serial dilutions were prepared in DMSO. 50 nL of each concentration in duplicate was preincubated for 30 minutes in a 384-well microplate (Greiner #784075) with 5 μL of 0.5 nM WRN in assay buffer. The reaction was initiated by adding 5 μL of 200 nM C6.18 DNA with 20 μM ATP and was allowed to proceed for 30 minutes at room temperature. The reaction was stopped with 10 μL ADP-Glo reagent for 1 hour to remove unreacted ATP. Lastly, 20 μL ATP detection reagent was added and incubated for 1 hour to generate the luminescence signal. Control wells included “high controls” with no inhibition (DMSO, no compound) and “low controls” with maximum inhibition (no WRN). Luminescence was recorded on a PHERAstar (BMG Labtech, Ortenberg, Germany). Data was fit using the “Smart Fit” method within the Genedata Screener Software (Basel, Switzerland) to obtain IC50 values using four-parameter fits. Reported IC50s are the geometric means of at least two independent trials.
T1 sequence (Q14191 2-1432): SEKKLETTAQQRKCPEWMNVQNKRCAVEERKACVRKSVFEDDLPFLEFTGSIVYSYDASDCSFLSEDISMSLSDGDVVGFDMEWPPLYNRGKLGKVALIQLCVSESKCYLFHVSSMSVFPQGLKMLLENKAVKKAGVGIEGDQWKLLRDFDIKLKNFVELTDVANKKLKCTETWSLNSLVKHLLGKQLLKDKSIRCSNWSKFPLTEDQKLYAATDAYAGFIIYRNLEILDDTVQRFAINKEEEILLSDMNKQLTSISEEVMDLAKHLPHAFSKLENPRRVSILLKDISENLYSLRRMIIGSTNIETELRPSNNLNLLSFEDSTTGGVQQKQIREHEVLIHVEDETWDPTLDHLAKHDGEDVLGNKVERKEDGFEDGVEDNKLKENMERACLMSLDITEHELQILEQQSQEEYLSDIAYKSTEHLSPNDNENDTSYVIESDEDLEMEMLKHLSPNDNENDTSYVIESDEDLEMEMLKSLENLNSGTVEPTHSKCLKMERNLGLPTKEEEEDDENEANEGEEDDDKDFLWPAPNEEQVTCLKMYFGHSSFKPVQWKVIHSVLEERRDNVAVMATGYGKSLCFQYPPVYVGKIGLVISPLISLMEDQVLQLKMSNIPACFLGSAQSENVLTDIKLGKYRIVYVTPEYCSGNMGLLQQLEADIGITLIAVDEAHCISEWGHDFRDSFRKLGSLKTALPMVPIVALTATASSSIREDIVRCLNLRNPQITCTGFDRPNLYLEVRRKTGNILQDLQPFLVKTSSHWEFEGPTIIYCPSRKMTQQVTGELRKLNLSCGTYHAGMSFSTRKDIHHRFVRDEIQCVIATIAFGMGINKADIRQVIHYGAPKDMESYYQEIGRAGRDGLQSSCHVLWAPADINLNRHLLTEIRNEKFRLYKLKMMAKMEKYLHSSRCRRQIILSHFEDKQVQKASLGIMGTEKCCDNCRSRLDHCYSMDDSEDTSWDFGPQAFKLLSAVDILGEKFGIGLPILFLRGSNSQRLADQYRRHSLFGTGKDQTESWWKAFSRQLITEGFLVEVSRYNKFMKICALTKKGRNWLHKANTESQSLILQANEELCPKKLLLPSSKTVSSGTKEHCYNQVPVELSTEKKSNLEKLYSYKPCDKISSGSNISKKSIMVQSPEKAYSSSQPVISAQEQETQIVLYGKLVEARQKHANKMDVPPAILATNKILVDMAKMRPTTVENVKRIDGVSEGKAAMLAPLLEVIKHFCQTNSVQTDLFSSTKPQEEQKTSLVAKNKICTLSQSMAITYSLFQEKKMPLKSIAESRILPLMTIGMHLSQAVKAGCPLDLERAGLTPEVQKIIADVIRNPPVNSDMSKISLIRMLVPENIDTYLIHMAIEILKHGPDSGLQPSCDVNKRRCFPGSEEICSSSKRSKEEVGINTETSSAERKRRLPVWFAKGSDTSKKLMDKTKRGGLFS
Background: ADP-Glo first removes unused ATP, then detects ADP through luciferase.

Experiment [2] addresses T1, Full length WRN protein (aa 2-1432). As to the kind of experiment: WRN ATPase ADP-Glo biochemical assay, Assay Format B (100 μM ATP). The settings on record: 0.25 nM WRN, 100 nM C6.18 ssDNA, 60 min preincubation, read-out: ATPase ADPGlo AC50 (uM)- Assay Format B.
Experiment [3] relates to HT29 cells. As to the kind of experiment: HT29 (MSS) 7 day viability, CellTiter Glo. It is filed as cell-based. The settings on record: Homo sapiens, HT-29, 168 h, 7 days, read-out: HT29 (MSS) Viability 7 Day CTGAbs AC50. The method, boiled down: (§1)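 HCT116 (50 cells/well) or HT29 (500 cells/well) exposed 7 days at 37° C, 5% CO2, to 10-point 3-fold compound dilutions. Viability measured by CellTiter Glo luminescence, background from cell-free wells; IC50 from four-parameter logistic fit, geometric mean of at least 2 replicates.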
For orientation: ATP-based viability assays read luminescence as a measure of living cells.

In experiment [4] the test system is HCT116 cells. Kind of experiment: HCT116 (MSI) 7 day viability, CellTiter Glo. The settings on record: Homo sapiens, HCT-116, 168 h, 7 days, read-out: HCT116 (MSI) Viability 7 Day Abs AC50. It is filed as cell-based. The method, boiled down: as §1

One may read the AC50 as the concentration at which the activity in the assay is half-maximal. Consider `C=CC(=O)N1CCc2nn(-c3ccc(C4CC4)cc3)c3c2C(C1)N(C(=O)c1cnc(C(F)(F)F)c(O)c1)CC3` (stereo not shown) [Compound 1, 1-(2-(4-cyclopropylphenyl)-5-(5-hydroxy-6-(trifluoromethyl)nicotinoyl)-2,3,4,5,5a,6,8,9-octahydro-7H-1,2,5,7-tetraazabenzo[cd]azulen-7-yl)prop-2-en-1-one], for which the AC50 is 0.0015 to 0.005 µM in experiment [1], 0.015 to 0.055 µM in experiment [2], greater than 3000 nM in experiment [3] and 100 to 250 nM in experiment [4].
The like results for `C=CC(=O)N1CCc2nn(-c3ccc(CC(F)(F)F)cc3O)c3c2C(C1)N(C(=O)c1ccc(Br)c2[nH]cnc12)CC3` (stereo not shown) [Compound 2, 1-(5-(7-bromo-1H-benzo[d]imidazole-4-carbonyl)-2-(2-hydroxy-4-(2,2,2-trifluoroethyl)phenyl)-2,3,4,5,5a,6,8,9-octahydro-7H-1,2,5,7-tetraazabenzo[cd]azulen-7-yl)prop-2-en-1-one] were, in that order, less than 0.0015 µM, 0.005 to 0.015 µM, greater than 3000 nM and 1 to 100 nM.
Turning to `C=CC(=O)N1CCc2nn(-c3ccc(C(F)(F)F)cc3O)c3c2C(C1)N(C(=O)c1ccc(Br)c2[nH]cnc12)CC3` (stereo not shown) [Compound 3, 1-(5-(7-bromo-1H-benzo[d]imidazole-4-carbonyl)-2-(2-hydroxy-4-(trifluoromethyl)phenyl)-2,3,4,5,5a,6,8,9-octahydro-7H-1,2,5,7-tetraazabenzo[cd]azulen-7-yl)prop-2-en-1-one], the AC50 in experiment [1] is 0.0015 to 0.005 µM; in experiment [2], 0.015 to 0.055 µM; in experiment [3] it was greater than 3000 nM; in experiment [4] it was 1 to 100 nM.
Turning to `C=CC(=O)N1CCc2nn(-c3ccc(C45CC(C4)C5)cc3)c3c2C(C1)N(C(=O)c1ccc(Br)c2[nH]cnc12)CC3` (stereo not shown) [Compound 4, 1-(2-(4-(bicyclo[1.1.1]pentan-1-yl)phenyl)-5-(7-bromo-1H-benzo[d]imidazole-4-carbonyl)-2,3,4,5,5a,6,8,9-octahydro-7H-1,2,5,7-tetraazabenzo[cd]azulen-7-yl)prop-2-en-1-one], the AC50 in experiment [1] is less than 0.0015 µM; in experiment [2], 0.015 to 0.055 µM; in experiment [3], greater than 3000 nM; in experiment [4], 1 to 100 nM.
Consider `C=CC(=O)N1CCc2nn(-c3ccc(C4CC4)cc3O)c3c2C(C1)N(C(=O)c1ccc(Br)c2[nH]cnc12)CC3` (stereo not shown) [Compound 5, 1-(5-(7-bromo-1H-benzo[d]imidazole-4-carbonyl)-2-(4-cyclopropyl-2-hydroxyphenyl)-2,3,4,5,5a,6,8,9-octahydro-7H-1,2,5,7-tetraazabenzo[cd]azulen-7-yl)prop-2-en-1-one], for which the AC50 in experiment [1] was less than 0.0015 µM; in experiment [2] it was 0.005 to 0.015 µM; in experiment [3], greater than 3000 nM; in experiment [4], 1 to 100 nM.
The like results for `C=CC(=O)N1CCc2nn(-c3ccc(C4CCC4(F)F)cc3O)c3c2C(C1)N(C(=O)c1ccc(Br)c2[nH]cnc12)CC3` (stereo not shown) [Compound 6, 1-(5-(7-bromo-1H-benzo[d]imidazole-4-carbonyl)-2-(4-(2,2-difluorocyclobutyl)-2-hydroxyphenyl)-2,3,4,5,5a,6,8,9-octahydro-7H-1,2,5,7-tetraazabenzo[cd]azulen-7-yl)prop-2-en-1-one] were, in that order, 0.0015 to 0.005 µM, 0.015 to 0.055 µM, greater than 3000 nM and 1 to 100 nM.
With `C=CC(=O)N1CCc2nn(-c3ccc(C(C)C)cc3)c3c2C(C1)N(C(=O)c1ccc(Br)c2[nH]cnc12)CC3` (stereo not shown) [Compound 7, 1-(5-(7-bromo-1H-benzo[d]imidazole-4-carbonyl)-2-(4-isopropylphenyl)-2,3,4,5,5a,6,8,9-octahydro-7H-1,2,5,7-tetraazabenzo[cd]azulen-7-yl)prop-2-en-1-one], the concentration at half-maximal activity (AC50) in experiment [1] is less than 0.0015 µM; in experiment [2], 0.005 to 0.015 µM; in experiment [3] it was greater than 3000 nM; in experiment [4], 1 to 100 nM.
On to `C=CC(=O)N1CCc2nn(-c3ccc(C4CC4)cc3)c3c2C(C1)N(C(=O)c1ccc(C2(C#N)CC2)nc1)CC3` (stereo not shown) [Compound 119, 1-(5-(7-acryloyl-2-(4-cyclopropylphenyl)-3,4,5,5a,6,7,8,9-octahydro-2H-1,2,5,7-tetraazabenzo[cd]azulene-5-carbonyl)pyridin-2-yl)cyclopropane-1-carbonitrile], for which the AC50 in experiment [1] was 0.015 to 0.055 µM; in experiment [3], greater than 3000 nM; in experiment [4], greater than 1000 nM.
For the molecule `C=CC(=O)N1CCc2nn(-c3ccc(C4CC4)cc3)c3c2C(C1)N(C(=O)c1cnc([N+](=O)[O-])c(O)c1)CC3` (stereo not shown) [Compound 120, 1-(2-(4-cyclopropylphenyl)-5-(5-hydroxy-6-nitronicotinoyl)-2,3,4,5,5a,6,8,9-octahydro-7H-1,2,5,7-tetraazabenzo[cd]azulen-7-yl)prop-2-en-1-one], the half-maximal activity concentration (AC50) in experiment [1] is 0.0015 to 0.005 µM; in experiment [3] it was greater than 3000 nM; in experiment [4], greater than 1000 nM.
As for `C=CC(=O)N1CCc2nn(-c3ccc(C4CC4)cc3)c3c2C(C1)N(C(=O)c1ccc(OC(C)C)nc1)CC3` (stereo not shown) [Compound 122, 1-(2-(4-cyclopropylphenyl)-5-(6-isopropoxynicotinoyl)-2,3,4,5,5a,6,8,9-octahydro-7H-1,2,5,7-tetraazabenzo[cd]azulen-7-yl)prop-2-en-1-one], the figures for the AC50 in experiment [1], in experiment [3] and in experiment [4] were 0.015 to 0.055 µM, greater than 3000 nM and 500 to 1000 nM, respectively.
On the same counts, the results for `C=CC(=O)N1CCc2nn(-c3ccc(C4CC4)cc3)c3c2C(C1)N(C(=O)c1ccc(C#N)nc1)CC3` (stereo not shown) [Compound 123, 5-(7-acryloyl-2-(4-cyclopropylphenyl)-3,4,5,5a,6,7,8,9-octahydro-2H-1,2,5,7-tetraazabenzo[cd]azulene-5-carbonyl)picolinonitrile] are 0.015 to 0.055 µM, greater than 3000 nM and 250 to 500 nM.
For `C=CC(=O)N1CCc2nn(-c3ccc(C4CC4)cc3)c3c2C(C1)N(C(=O)c1ccc(C(F)F)nc1)CC3` (stereo not shown) [Compound 126, 1-(2-(4-cyclopropylphenyl)-5-(6-(difluoromethyl)nicotinoyl)-2,3,4,5,5a,6,8,9-octahydro-7H-1,2,5,7-tetraazabenzo[cd]azulen-7-yl)prop-2-en-1-one], the half-maximal activity concentration (AC50) in experiment [1] was 0.005 to 0.015 µM; in experiment [3], greater than 3000 nM; in experiment [4], 250 to 500 nM.
On the same counts, the results for `C=CC(=O)N1CCc2nn(-c3ccc(C4CCC4)cc3O)c3c2C(C1)N(C(=O)c1cnc(Br)c2[nH]cnc12)CC3` (stereo not shown) [Compound 137, 1-(5-(4-bromo-3H-imidazo[4,5-c]pyridine-7-carbonyl)-2-(4-cyclobutyl-2-hydroxyphenyl)-2,3,4,5,5a,6,8,9-octahydro-7H-1,2,5,7-tetraazabenzo[cd]azulen-7-yl)prop-2-en-1-one] are less than 0.0015 µM, greater than 3000 nM and 1 to 100 nM.
Consider `C=CC(=O)N1CCc2nn(-c3ccc(C4CCC4)cc3O)c3c2C(C1)N(C(=O)c1cnc(C(F)(F)F)c2[nH]ncc12)CC3` (stereo not shown) [Compound 151, 1-(2-(4-cyclobutyl-2-hydroxyphenyl)-5-(7-(trifluoromethyl)-1H-pyrazolo[3,4-c]pyridine-4-carbonyl)-2,3,4,5,5a,6,8,9-octahydro-7H-1,2,5,7-tetraazabenzo[cd]azulen-7-yl)prop-2-en-1-one], for which the AC50 was less than 0.0015 µM in experiment [1], greater than 3000 nM in experiment [3] and 1 to 100 nM in experiment [4].
The like results for `C=CC(=O)N1CCc2nn(-c3ccc(C4CCC4)cc3O)c3c2C(C1)N(C(=O)c1ncc(C(F)(F)F)c2[nH]cnc12)CC3` (stereo not shown) [Compound 154, 1-(2-(4-cyclobutyl-2-hydroxyphenyl)-5-(7-(trifluoromethyl)-1H-imidazo[4,5-c]pyridine-4-carbonyl)-2,3,4,5,5a,6,8,9-octahydro-7H-1,2,5,7-tetraazabenzo[cd]azulen-7-yl)prop-2-en-1-one] were, in that order, less than 0.0015 µM, greater than 3000 nM and 1 to 100 nM.
The like results for `C=CC(=O)N1CCc2nn(-c3ccc(C(C)C)cc3)c3c2C(C1)N(C(=O)C1CC1)CC3` (stereo not shown) [Compound 170, 1-(5-(cyclopropanecarbonyl)-2-(4-isopropylphenyl)-2,3,4,5,5a,6,8,9-octahydro-7H-1,2,5,7-tetraazabenzo[cd]azulen-7-yl)prop-2-en-1-one] were, in that order, greater than 0.055 µM, greater than 3000 nM and greater than 1000 nM.
